Assay results as given in patent US20260092054A1, “FUSED RING COMPOUND AND PHARMACEUTICAL CONTAINING SAME” (KAKEN PHARMACEUTICAL CO., LTD., priority 2022, published 2026).

Tests used:
human STAT6/pIL-4Rα = biological target: T1, human STAT6/pIL-4Rα (Homo sapiens, UniProt P42226); assay: Binding inhibitory activity between human STAT6/pIL-4Rα by fluorescence polarization method; settings: rhSTAT6 (123-658) / FAM-pIL-4Rα peptide
T1 construct: histidine tag
T1 sequence (P42226 123-658): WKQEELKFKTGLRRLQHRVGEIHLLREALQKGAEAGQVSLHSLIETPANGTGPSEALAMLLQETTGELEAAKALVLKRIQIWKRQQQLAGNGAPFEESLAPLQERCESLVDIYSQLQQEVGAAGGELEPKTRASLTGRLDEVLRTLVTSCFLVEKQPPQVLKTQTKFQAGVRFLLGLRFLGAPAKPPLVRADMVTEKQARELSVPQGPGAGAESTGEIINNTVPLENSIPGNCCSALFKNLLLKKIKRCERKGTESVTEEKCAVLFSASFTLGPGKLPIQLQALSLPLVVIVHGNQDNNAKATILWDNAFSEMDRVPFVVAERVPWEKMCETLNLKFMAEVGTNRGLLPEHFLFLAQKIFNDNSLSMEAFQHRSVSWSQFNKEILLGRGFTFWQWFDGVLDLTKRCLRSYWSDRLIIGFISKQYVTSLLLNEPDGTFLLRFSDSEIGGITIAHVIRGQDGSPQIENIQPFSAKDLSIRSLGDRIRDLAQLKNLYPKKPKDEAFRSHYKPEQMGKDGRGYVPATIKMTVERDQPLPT
Outline: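 His-tagged human STAT6 (residues 123–658, E. coli-expressed) was preincubated with compound for 30 min at RT in the dark, in buffer e.g. 50 mM NaCl, 10 mM HEPES pH 7.0, 1 mM DTT, 1 mM EDTA, 0.01% NP-40. FAM-pIL-4Rα peptide was then added for 30 min. Fluorescence polarisation was read at 485/535 nm, with IC50 interpolated linearly between two points flanking 50%.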

human STAT6 = assay: Human STAT6 dependent reporter activity (IL-4 stimulated STAT6 reporter assay using STAT6-HEK293 cells); assay type: cell-based; settings: IL-4 stimulation, luciferase activity; for inhibition at 0.1 µM / inhibition at 1 µM: Homo sapiens, read-out: Inhibition rate (%)

Row | Compound | IC50 (human STAT6/pIL-4Rα) [nM] | inhibition at 0.1 µM (human STAT6; compound 0.1 μmol/L) [%] | inhibition at 1 µM (human STAT6; compound 1 μmol/L) [%] | Inhibition rate (%) (human STAT6; compound 0.1 μmol/L) | Inhibition rate (%) (human STAT6; compound 1 μmol/L)
1 | COCCn1c(-c2ccc(-n3c(C)nn(C)c3=O)cc2)cc2cc(C(F)(F)F)nc(C(=O)Nc3cccc(C(N)=O)c3)c21 [Ex. 91] | 250 | 67 | 99 |  | 
2 | Cc1nn(C)c(=O)n1-c1ccc(-c2cc3cc(C(F)(F)F)nc(C(=O)Nc4ccc(F)c(C(N)=O)c4)c3n2C)cc1 [Ex. 92] | 230 | 74 | 99 |  | 
3 | Cc1nn(C)c(=O)n1-c1ccc(-c2cc3cc(C(F)(F)F)nc(C(=O)Nc4cccc(C(N)=O)c4)c3n2C)cc1 [Ex. 93] | 280 | 67 | 96 |  | 
4 | Cc1nn(C)c(=O)n1-c1ccc(-c2cc3cc(C(F)(F)F)nc(C(=O)Nc4cccc(C(N)=O)c4F)c3n2C)cc1 [Ex. 94] | 310 | 79 |  |  | 
5 | COCCn1c(-c2ccc(-n3c(C)nn(C)c3=O)cc2)cc2cc(C(F)(F)F)cc(C(=O)Nc3cccc(N)n3)c21 [Ex. 95] | 280 | 74 |  |  | 
6 | COCCn1c(-c2ccc(-n3c(C)nn(C)c3=O)cc2)cc2cc(C(F)(F)F)nc(C(=O)Nc3cccc(C(N)=O)c3F)c21 [Ex. 97] | 290 | 89 |  |  | 
7 | CCn1c(-c2ccc(-n3c(C)nn(C)c3=O)cc2F)cc2ccnc(C(=O)Nc3cccc(C(N)=O)c3F)c21 [Ex. 98] | 310 | 60 | 100 |  | 
8 | CCn1c(-c2ccc(-n3cnn(C)c3=O)cc2)cc2ccnc(C(=O)Nc3cccc(C(N)=O)c3F)c21 [Ex. 99] | 380 | 51 | 95 |  | 
9 | COCCn1c(-c2ccc(-n3c(C)nn(C)c3=O)cc2)cc2cc(C(F)(F)F)cc(C(=O)Nc3cccc(COC)n3)c21 [Ex. 100] | 300 | 85 |  |  | 
10 | CCn1c(-c2ccc(-n3c(C)nn(C)c3=O)cc2)cc2cc(C(F)(F)F)cc(C(=O)Nc3cccc(OC)n3)c21 [Ex. 102] | 2820 |  | 60 |  | 
11 | Cc1nn(C)c(=O)n1-c1ccc(-c2cc3ccnc(C(=O)Nc4cccc(C(N)=O)c4)c3n2C)cc1 [Ex. 107] | 290 | 67 |  |  | 
12 | Cc1nn(C)c(=O)n1-c1ccc(-c2cc3ccnc(C(=O)Nc4ccc(F)c(C(N)=O)c4)c3n2C)cc1 [Ex. 108] | 460 | 52 | 97 |  | 
13 | Cc1nn(C)c(=O)n1-c1ccc(-c2cc3ccnc(C(=O)Nc4cccc(C(N)=O)c4F)c3n2C)cc1 [Ex. 109] | 430 | 62 |  |  | 
14 | CCn1c(-c2ccc(-n3c(C)nn(C)c3=O)cc2)cc2ncnc(C(=O)Nc3ccc(F)c(C(N)=O)c3)c21 [Ex. 110] | 430 | 65 |  |  | 
15 | Cc1nn(C)c(=O)n1-c1ccc(-c2cc3ccnc(C(=O)Nc4ccc(F)c(C(N)=O)c4)c3n2CCC(F)F)cc1 [Ex. 111] | 550 | 25 | 80 |  | 
16 | Cc1nn(C)c(=O)n1-c1ccc(-c2cc3ccnc(C(=O)Nc4cccc(C(N)=O)c4F)c3n2CCC(F)F)cc1 [Ex. 112] | 400 | 38 | 93 |  | 
17 | Cc1nn(C)c(=O)n1-c1ccc(-c2cc3ccnc(C(=O)Nc4cccc(C(N)=O)c4F)c3n2CCOCC(F)(F)F)cc1 [Ex. 113] | 440 | 44 | 96 |  | 
18 | Cc1nn(C)c(=O)n1-c1ccc(-c2cc3ccnc(C(=O)Nc4ccc(F)c(C(N)=O)c4)c3n2CCOCC(F)(F)F)cc1 [Ex. 114] | 330 | 57 | 97 |  | 
19 | COCCn1c(-c2ccc(-n3c(C)nn(C)c3=O)cc2)cc2cc(C(F)(F)F)cc(C(=O)Nc3cccc(CO)c3)c21 [Ex. 115] | 430 | 54 | 95 |  | 
20 | CCn1c(-c2ccc(-n3c(C)nn(C)c3=O)cc2)cc2cc(C(F)(F)F)cc(C(=O)Nc3cccc(-c4ncc[nH]4)c3)c21 [Ex. 118] | 230 | 95 |  |  | 
21 | Cc1nn(C)c(=O)n1-c1ccc(-c2cc3cccc(C(=O)Nc4cccc(C(N)=O)c4F)c3n2CC2CC2)cc1 [Ex. 119] | 380 | 95 |  |  | 
22 | Cc1nn(C)c(=O)n1-c1ccc(-c2cc3ccnc(C(=O)Nc4cccc(C(N)=O)c4)c3n2CC2CCC2)cc1 [Ex. 120] | 500 | 74 |  |  | 

Row | Compound | IC50 (human STAT6/pIL-4Rα) [nM] | inhibition at 0.1 µM (human STAT6; compound 0.1 μmol/L) [%] | inhibition at 1 µM (human STAT6; compound 1 μmol/L) [%] | Inhibition rate (%) (human STAT6; compound 0.1 μmol/L) | Inhibition rate (%) (human STAT6; compound 1 μmol/L)
23 | Cc1nn(C)c(=O)n1-c1ccc(-c2cc3ccnc(C(=O)Nc4ccc(F)c(C(N)=O)c4)c3n2CC2CCC2)cc1 [Ex. 121] | 420 | 40 | 97 |  | 
24 | Cc1nn(C)c(=O)n1-c1ccc(-c2cc3ccnc(C(=O)Nc4cccc(C(N)=O)c4F)c3n2CC2CCC2)cc1 [Ex. 122] | 690 | 23 | 89 |  | 
25 | Cc1nn(C)c(=O)n1-c1ccc(-c2cc3ccnc(C(=O)Nc4cccc(C(N)=O)c4F)c3n2CC2(C#N)CC2)cc1 [Ex. 123] | 500 | 40 | 96 |  | 
26 | Cc1nn(C)c(=O)n1-c1ccc(-c2cc3cc(C(F)(F)F)cc(C(=O)Nc4ccc(F)c(C(N)=O)c4)c3n2CC2(C#N)CC2)cc1 [Ex. 124] | 450 | 57 | 99 |  | 
27 | Cc1nn(C)c(=O)n1-c1ccc(-c2cc3cc(C(F)(F)F)cc(C(=O)Nc4cccc(C(N)=O)c4F)c3n2CC2(C#N)CC2)cc1 [Ex. 125] | 260 | 52 | 99 |  | 
28 | Cc1nn(C)c(=O)n1-c1ccc(-c2cc3cc(C(F)(F)F)cc(C(=O)Nc4cccc(C(N)=O)c4)c3n2CC2(C#N)CC2)cc1 [Ex. 126] | 240 | 62 |  |  | 
29 | CCn1c(-c2ccc(-n3c(C)nn(C)c3=O)nn2)cc2cc(C(F)(F)F)cc(C(=O)Nc3cccc(C(N)=O)c3F)c21 [Ex. 127] | 250 | 38 | 99 |  | 
30 | CCn1c(-c2ccc(N3C(=O)C(C)CC3C)cc2)cc2ccnc(C(=O)Nc3ccc(F)c(C(N)=O)c3)c21 (centres unmarked) [Ex. 129] | 590 |  |  | 8 | 75
31 | CCn1c(-c2ccc(N3C(=O)C(C)CC3C)cc2)cc2ccnc(C(=O)Nc3ccc(F)c(C(N)=O)c3)c21 (centres unmarked) [Ex. 130] | 360 |  |  | 74 | 96
32 | CCn1c(-c2ccc(N3C(=O)C(C)CC3C)cc2)cc2ccnc(C(=O)Nc3cccc(C(N)=O)c3)c21 (centres unmarked) [Ex. 131] | 510 | 56 | 92 |  | 
33 | COCCn1c(-c2ccc(N3C(=O)C(C)CC3C)cc2)cc2cc(C(F)(F)F)nc(C(=O)Nc3cccc(C(N)=O)c3)c21 (centres unmarked) [Ex. 132] | 520 | 70 | 96 |  | 
34 | COCCn1c(-c2ccc(N3C(=O)C(C)CC3C)cc2)cc2cc(C(F)(F)F)nc(C(=O)Nc3ccc(F)c(C(N)=O)c3)c21 (centres unmarked) [Ex. 133] | 230 | 80 |  |  | 
35 | CCn1c(-c2ccc(N3C(=O)C(C)CC3C)cc2)cc2cc(C(F)(F)F)nc(C(=O)Nc3cccc(C(N)=O)c3)c21 (centres unmarked) [Ex. 134] | 370 | 48 | 99 |  | 
36 | CCn1c(-c2ccc(N3C(=O)C(C)CC3C)cc2)cc2cc(C(F)(F)F)nc(C(=O)Nc3ccc(F)c(C(N)=O)c3)c21 (centres unmarked) [Ex. 135] | 530 | 85 |  |  | 
37 | COCCn1c(-c2ccc(N3C(=O)C(C)CC3C)cc2)cc2ccnc(C(=O)Nc3cccc(C(N)=O)c3)c21 (centres unmarked) [Ex. 136] | 480 | 61 |  |  | 
38 | COCCn1c(-c2ccc(N3C(=O)C(C)CC3C)cc2)cc2ccnc(C(=O)Nc3ccc(F)c(C(N)=O)c3)c21 (centres unmarked) [Ex. 137] | 280 | 62 |  |  | 
39 | COCCn1c(-c2ccc(-n3c(C)nn(C)c3=O)cc2)cc2cc(C(F)(F)F)cc(COc3cccc(C(N)=O)c3)c21 [Ex. 138] | 370 | 35 | 93 |  | 
40 | COCCn1c(-c2ccc(-n3c(C)nn(C)c3=O)cc2)cc2cc(C(F)(F)F)cc(CNc3cccc(C(N)=O)c3)c21 [Ex. 139] | 1940 | 8 | 69 |  | 
41 | CCn1c(-c2ccc(-n3c(C)nn(C)c3=O)cc2)c(I)c2cncc(C(=O)Nc3ccc(F)c(C(N)=O)c3)c21 [Ex. 140] | 2720 | 3 | 45 |  | 
42 | CCn1c(-c2ccc(-n3cnn(C)c3=O)cc2)c(Cl)c2cc(C(F)(F)F)cc(C(=O)Nc3ccc(F)c(C(N)=O)c3)c21 [Ex. 142] | 300 | 94 | 100 |  | 
43 | COCCn1c(-c2ccc(-n3c(C)nn(C)c3=O)cc2)c(Cl)c2cc(C(F)(F)F)cc(C(=O)Nc3ccc(F)c(C(N)=O)c3)c21 [Ex. 143] | 390 | 87 | 99 |  | 
